Entries after “also recorded” stand apart in the source; their conditions may differ.
Tests used:
[1] = background; cited from earlier work
[2] = target: T1, HIT antibody complex (Platelet Factor 4 and antibody) (Homo sapiens, UniProt P02776)
T1 sequence (P02776 32-101): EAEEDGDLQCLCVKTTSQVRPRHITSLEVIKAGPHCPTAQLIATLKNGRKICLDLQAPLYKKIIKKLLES
Method: ELISA methodology was used to measure the bound antibody as measured by absorbance (at 415 nm) of the product derived from a chromogenic substrate by the enzyme on the secondary antibody probe. […] Heparin derivatives treated to reduce their anticoagulant activity (non-anticoagulant heparin (NACH) or Roneparstat (Rone)) were also tested in the HIT assay.

[3] = target: T2, Recombinant human heparanase (Homo sapiens, UniProt Q9Y251); test: Heparanase challenge (PAGE, Stains-All detection); assay type: biochemical; settings: heparanase 73 ng, sTestan 180 ng, 24 hours, pH 5, 30° C.
T2 construct: purchased R&D Systems; Minneapolis, MN
T2 sequence (Q9Y251 158-543 limits assumed): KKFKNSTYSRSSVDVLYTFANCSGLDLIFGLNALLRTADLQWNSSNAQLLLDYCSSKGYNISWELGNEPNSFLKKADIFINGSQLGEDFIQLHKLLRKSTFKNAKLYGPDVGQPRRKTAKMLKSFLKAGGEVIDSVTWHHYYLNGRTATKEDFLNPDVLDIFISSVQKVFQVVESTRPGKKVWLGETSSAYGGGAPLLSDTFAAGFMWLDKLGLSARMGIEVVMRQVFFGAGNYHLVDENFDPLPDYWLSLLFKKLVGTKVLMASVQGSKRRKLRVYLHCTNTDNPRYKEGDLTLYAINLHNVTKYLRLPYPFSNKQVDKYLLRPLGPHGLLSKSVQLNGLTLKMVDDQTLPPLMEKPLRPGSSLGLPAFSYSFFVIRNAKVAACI
T2 sequence (Q9Y251 36-109 limits assumed): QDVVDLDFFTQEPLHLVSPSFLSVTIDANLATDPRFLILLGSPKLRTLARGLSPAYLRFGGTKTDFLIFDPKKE
Method: The reactions were analyzed by polyacrylamide gel electrophoresis (20% gels, 1×TBE) and Stains-All detection.

[4] = target: T2, Recombinant human heparanase; test: Gel-based heparanase enzyme inhibition assay, fluorescent synthetic O-sulfated heparosan substrate; assay type: biochemical
Source text: (§1) A gel-based assay was used to monitor the catalytic action of recombinant human heparanase (R&D Systems; Minneapolis, MN) on polysaccharide substrates. In these assays, fluorescent chains were monitored for cleavage; the disappearance of the parental substrate band is readily noticeable. Each chain contains multiple, overlapping heparanase cut sites so there is a gradual decrease in molecular weight over time. This simple, defined assay directly monitors the digestion of polysaccharides (i.e., glycans>˜20 monosaccharide units) that approximate naturally occurring substrates.
(§2) Two types of substrates were employed to follow heparanase activity: (i) a fluorescein end-labeled synthetic O-sulfated O-linked heparosan or (ii) polyacrylamide gel electrophoretically-purified rhodamine-tagged HS. Heparanase (1.3 ng/μl final) was incubated with substrate (synthetic, 57 ng/μl; HS, 3.3 ng/μl) for various times (typically ˜0.2-5 h) in 50 mM sodium acetate, pH 5, 1 mg/ml acetylated bovine serum albumin (Promega; Madison, WI) at 30° C. Aliquots of reactions were analyzed by polyacrylamide gel electrophoresis (2 μl of reaction/lane; 20% gels, 1×TBE) and fluorescence imaging (5-120 sec exposures; ChemiDoc MP). Then the overall size range of the polysaccharide fragments was followed by Stains-All detection.

[5] = target: T2, Recombinant human heparanase; test: Gel-based heparanase enzyme inhibition assay, natural heparan sulfate (HS) substrate; assay type: biochemical; settings: various substrate to inhibitor ratios, 30 min time-point
Source text: as §1, §2

In the case of `CC(C)CCC[C@@H](C)[C@H]1CC[C@H]2[C@@H]3CC[C@H]4C[C@@H](O[C@@H]5O[C@H](COS(=O)(=O)O)[C@@H](O[C@H]6O[C@H](COS(=O)(=O)O)[C@@H](O[C@H]7O[C@H](COS(=O)(=O)O)[C@@H](O[C@H]8O[C@H](COS(=O)(=O)O)[C@@H](OS(=O)(=O)O)[C@H](OS(=O)(=O)O)[C@H]8OS(=O)(=O)O)[C@H](OS(=O)(=O)O)[C@H]7OS(=O)(=O)O)[C@H](OS(=O)(=O)O)[C@H]6OS(=O)(=O)O)[C@H](OS(=O)(=O)O)[C@H]5OS(=O)(=O)O)CC[C@]4(C)[C@H]3CC[C@]12C` [PG545], the cell toxicity [1] is given as “lacks significant anticoagulant activity and cell toxicity”.
In the case of Roneparstat, the “HIT complex reactivity (competition with plate-bound heparin)” value [2] is reported as “less reactive”.
With heparin the “HIT complex reactivity (competition with plate-bound heparin)” value [2] was “competed well”.
For “sulfated or sulfonated testosteronan [sTestan]”, the “digestion/cleavage by human heparanase” value [3] was “recalcitrant to the action of heparanase; also recorded: recalcitrant to digestion by heparanase”, the “fold more active on a molar basis than the heparosan substrate” value [4] was ≥ 100 fold and the “heparanase inhibitor potency compared with generic Roneparstat” value ([4]; FIG. 7) was “similarly potent; also recorded: potent competitive inhibitor of human heparanase similar to a known heparanase inhibitor”. For the same compound, the “inhibition of heparanase cleavage of fluorescent sulfo-O-linked heparosan substrate” value ([4]; titration of inhibitor, 15-min time point, PAGE) was “inhibited the digestion of the substrate; also recorded: competitive inhibitor of heparanase” and the “inhibition of heparanase digestion of natural HS substrate” value [5] was “protecting natural HS from human heparanase digestion”.

Source: US20250375471A1, “HEPARANASE INHIBITORS AND METHODS OF USE” (The Board of Regents of the University of Oklahoma, priority 2022, published 2025)
